Laboratory results taken from ChEMBL document CHEMBL6134930, “Discovery of AB801, a Potent and Selective Inhibitor of AXL Receptor Tyrosine Kinase for Use in Cancer Therapy” (J Med Chem, 2025).

How the values were obtained:
[1] = biological target: T1, Tyrosine-protein kinase receptor UFO (Homo sapiens, UniProt P30530); test: Inhibition of autophosphorylation AXL (unknown origin) expressed in HEK293 cells assessed as NanoLuc activity associated with phosphorylated proteins measured after 1 hr incubation by intracellular pAXL-ELISA; format: cell-based
T1 sequence (P30530 whole entry): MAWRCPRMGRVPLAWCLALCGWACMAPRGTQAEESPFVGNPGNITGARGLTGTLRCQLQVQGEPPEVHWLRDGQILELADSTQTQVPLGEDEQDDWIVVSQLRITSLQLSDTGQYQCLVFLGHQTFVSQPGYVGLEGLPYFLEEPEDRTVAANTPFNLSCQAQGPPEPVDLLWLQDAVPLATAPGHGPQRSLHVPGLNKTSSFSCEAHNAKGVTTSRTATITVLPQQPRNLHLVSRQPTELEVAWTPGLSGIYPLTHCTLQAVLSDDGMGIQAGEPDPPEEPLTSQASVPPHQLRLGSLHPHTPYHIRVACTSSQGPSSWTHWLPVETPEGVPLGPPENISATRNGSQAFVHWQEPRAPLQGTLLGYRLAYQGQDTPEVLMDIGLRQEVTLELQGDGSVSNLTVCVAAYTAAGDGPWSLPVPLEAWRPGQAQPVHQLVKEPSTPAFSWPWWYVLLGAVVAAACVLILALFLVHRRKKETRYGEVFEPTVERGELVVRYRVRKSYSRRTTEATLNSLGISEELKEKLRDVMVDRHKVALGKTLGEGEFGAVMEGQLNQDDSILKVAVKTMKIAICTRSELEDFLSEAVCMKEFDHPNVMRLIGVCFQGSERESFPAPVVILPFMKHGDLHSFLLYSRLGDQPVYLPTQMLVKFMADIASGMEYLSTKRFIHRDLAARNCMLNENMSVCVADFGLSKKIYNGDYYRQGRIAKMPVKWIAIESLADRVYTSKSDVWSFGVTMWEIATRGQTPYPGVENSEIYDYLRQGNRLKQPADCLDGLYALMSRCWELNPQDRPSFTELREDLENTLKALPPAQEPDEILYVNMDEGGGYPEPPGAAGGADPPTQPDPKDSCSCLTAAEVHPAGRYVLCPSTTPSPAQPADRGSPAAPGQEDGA

[2] = Metabolic stability in human hepatocytes assessed as intrinsic clearance measured per 10^6 cells; format: ADME, cell-based, Hepatocyte; settings: read-out: CLH
[3] = Metabolic stability in rat hepatocytes assessed as intrinsic clearance measured per 10^6 cells; format: ADME, cell-based, Hepatocyte; settings: read-out: CLH
[4] = biological target: T1, Tyrosine-protein kinase receptor UFO; test: Inhibition of human AXL measured after 150 mins by ATP-competitive HTRF based biochemical assay
[5] = AUCinf in Sprague-Dawley rat at 2 mg/kg, po measured up to 8 hrs by LC-MS/MS analysis; format: ADME, organism-based; settings: in vivo
[6] = biological target: T1, Tyrosine-protein kinase receptor UFO; test: Binding affinity to AXL (unknown origin) expressed in HEK293 cells transfected with Nano-Luc fusion vector assessed as dissociation constant by measuring decrease in BRET signal preincubated for 1 hr followed by K-5 NanoBRET tracer addition incubated for 2 hrs; format: cell-based
[7] = Efflux ratio in human Caco-2 cells; format: ADME, cell-based
hERG (KCNH2) = hERG (KCNH2) (Homo sapiens, UniProt Q12809); test: Inhibition of hERG at 10 uM by high throughput cell based patch clamp assay; format: toxicity
[8] = Apparent permeability of compound from apical to basolateral side in human Caco-2 cells; format: ADME, cell-based; settings: read-out: permeability
[9] = Clearance in Sprague-Dawley rat at 0.5 mg/kg, iv measured up to 24 hrs by LC-MS/MS analysis; format: ADME, organism-based; settings: in vivo

Sequence of hERG (KCNH2) (Q12809 whole entry): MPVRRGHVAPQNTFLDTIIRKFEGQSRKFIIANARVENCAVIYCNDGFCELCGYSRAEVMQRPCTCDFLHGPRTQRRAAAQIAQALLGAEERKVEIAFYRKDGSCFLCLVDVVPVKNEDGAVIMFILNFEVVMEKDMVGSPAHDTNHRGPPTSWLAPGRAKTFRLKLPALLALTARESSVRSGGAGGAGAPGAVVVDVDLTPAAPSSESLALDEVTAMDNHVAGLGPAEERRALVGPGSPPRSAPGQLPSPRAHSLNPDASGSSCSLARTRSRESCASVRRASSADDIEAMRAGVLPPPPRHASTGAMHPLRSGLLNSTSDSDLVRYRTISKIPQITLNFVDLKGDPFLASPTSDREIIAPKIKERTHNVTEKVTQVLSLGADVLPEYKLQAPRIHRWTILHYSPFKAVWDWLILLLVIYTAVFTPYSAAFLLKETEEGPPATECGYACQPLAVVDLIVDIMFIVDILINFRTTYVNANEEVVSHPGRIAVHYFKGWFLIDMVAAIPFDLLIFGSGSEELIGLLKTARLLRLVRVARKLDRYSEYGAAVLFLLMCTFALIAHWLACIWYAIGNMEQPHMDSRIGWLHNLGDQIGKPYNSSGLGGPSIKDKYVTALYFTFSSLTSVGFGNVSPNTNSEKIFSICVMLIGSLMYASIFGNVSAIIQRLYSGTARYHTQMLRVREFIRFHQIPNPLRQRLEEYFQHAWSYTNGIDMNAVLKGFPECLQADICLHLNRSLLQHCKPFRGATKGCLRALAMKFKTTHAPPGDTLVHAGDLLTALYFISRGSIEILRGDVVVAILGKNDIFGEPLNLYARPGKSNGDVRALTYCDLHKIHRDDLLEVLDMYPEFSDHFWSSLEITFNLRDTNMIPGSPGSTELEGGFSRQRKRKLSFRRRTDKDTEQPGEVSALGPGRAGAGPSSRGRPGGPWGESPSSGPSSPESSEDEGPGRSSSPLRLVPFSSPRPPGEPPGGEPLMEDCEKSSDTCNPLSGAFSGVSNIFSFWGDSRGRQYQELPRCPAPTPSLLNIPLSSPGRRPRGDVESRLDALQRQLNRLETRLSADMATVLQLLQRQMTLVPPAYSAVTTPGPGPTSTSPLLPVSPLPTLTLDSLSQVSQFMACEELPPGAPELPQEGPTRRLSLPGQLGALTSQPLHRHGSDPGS

SMILES | IC50 [1] [µM] | hepatocyte CLint [2] [µL/min/1e6 cells] | hepatocyte CLint [3] [µL/min/1e6 cells] | IC50 [4] [µM] | AUC(0-inf) [5] [ng·h/mL] | Kd [6] [µM] | efflux ratio [7] | inhibition at 10 µM (hERG (KCNH2)) [%] | Papp A→B [8] [×10⁻⁶ cm/s] | clearance [9] [mL/min/kg]
COCCOc1cccnc1-c1ccc(-c2n[nH]c3ncc(-c4ccc5c(c4)CC[C@@H](N4C6COCC4C6)CC5)cc23)cc1 | 0.033 | 3.2 | 16 | 0.0013 | – | – | – | – | – | –
O=S1(=O)CCCN1c1ccc(-c2n[nH]c3ncc(-c4ccc5c(c4)CC[C@@H](N4C6COCC4C6)CC5)cc23)cc1 | – | < 2.7 | < 2.7 | 0.013 | 39 | 0.051 | – | – | – | –
Cn1cc(-c2ccc(-c3n[nH]c4ncc(-c5ccc6c(c5)CCC(N5C7COCC5C7)CC6)cc34)cc2)cn1 (racemic) | – | – | – | 0.034 | – | 2.2 | – | – | – | –
Cc1cccnc1-c1ccc(-c2n[nH]c3ncc(-c4ccc5c(c4)CC[C@@](C)(N4CCC[C@H]4C)CC5)cc23)cc1 | 0.013 | < 2.7 | < 2.7 | 0.00075 | 380 | – | – | – | – | –
Cc1cccnc1-c1ccc(-c2n[nH]c3ncc(-c4ccc5c(c4)CC[C@@H](N[C@H]4CCCOC4)CC5)cc23)cc1 | 0.1 | 5.8 | 12 | 0.0026 | – | – | – | – | – | –
CS(=O)(=O)c1ccc(-c2n[nH]c3ncc(-c4ccc5c(c4)CC[C@@H](N4C6COCC4C6)CC5)cc23)cc1 | – | 5.8 | 9.8 | 0.0038 | 120 | 0.013 | – | – | – | –
CN(C)S(=O)(=O)c1ccc(-c2n[nH]c3ncc(-c4ccc5c(c4)CC[C@@H](N4C6COCC4C6)CC5)cc23)cc1 | – | 36 | 110 | 0.0026 | – | 0.015 | – | – | – | –
FC(F)(F)c1cccnc1-c1ccc(-c2n[nH]c3ncc(-c4ccc5c(c4)CC[C@@H](N4C6COCC4C6)CC5)cc23)cc1 | 0.73 | < 2.7 | < 2.7 | 0.0082 | – | – | – | – | – | –
N#Cc1cccnc1-c1ccc(-c2n[nH]c3ncc(-c4ccc5c(c4)CC[C@@H](N4C6COCC4C6)CC5)cc23)cc1 | 0.22 | < 2.7 | < 2.7 | 0.006 | – | – | – | – | – | –
c1cc2c(cc1-c1cnc3[nH]nc(-c4ccc(N5CCOCC5)cc4)c3c1)CC[C@@H](N1C3COCC1C3)CC2 | – | – | – | 0.066 | – | 0.19 | – | – | – | –
Cn1ncnc1-c1ccc(-c2n[nH]c3ncc(-c4ccc5c(c4)CC[C@@H](N4C6COCC4C6)CC5)cc23)cc1 | – | < 2.7 | 5 | 0.0027 | 410 | 0.0071 | 5.7 | – | – | –
Cn1nccc1-c1ccc(-c2n[nH]c3ncc(-c4ccc5c(c4)CC[C@@H](N4C6COCC4C6)CC5)cc23)cc1 | – | – | – | 0.0039 | – | 0.031 | – | – | – | –
O=C1OCCN1c1ccc(-c2n[nH]c3ncc(-c4ccc5c(c4)CC[C@@H](N4C6COCC4C6)CC5)cc23)cc1 | 0.39 | < 2.7 | 4.3 | 0.015 | 1500 | 0.027 | 3.3 | 44 | 8 | 8.17
Cn1ccnc1-c1ccc(-c2n[nH]c3ncc(-c4ccc5c(c4)CC[C@@H](N4C6COCC4C6)CC5)cc23)cc1 | – | < 2.7 | 16 | 0.00063 | 160 | 0.0019 | 18 | – | – | –
O=C1CCCN1c1ccc(-c2n[nH]c3ncc(-c4ccc5c(c4)CC[C@@H](N4C6COCC4C6)CC5)cc23)cc1 | – | – | – | 0.06 | – | 0.089 | – | – | – | –
c1ccc(-c2ccc(-c3n[nH]c4ncc(-c5ccc6c(c5)CC[C@@H](N5C7COCC5C7)CC6)cc34)cc2)nc1 | 1.7 | < 2.7 | < 2.7 | 0.005 | 2800 | 0.075 | – | – | – | –
Cn1nncc1-c1ccc(-c2n[nH]c3ncc(-c4ccc5c(c4)CC[C@@H](N4C6COCC4C6)CC5)cc23)cc1 | – | – | – | 0.0089 | – | 0.091 | – | – | – | –
c1cc(-c2n[nH]c3ncc(-c4ccc5c(c4)CCC(N4C6COCC4C6)CC5)cc23)ccn1 (racemic) | – | 8.7 | 13 | 0.02 | 130 | 0.038 | – | – | – | –
c1cc2c(cc1-c1cnc3[nH]nc(-c4ccc(N5C[C@H]6C[C@@H]5CO6)cc4)c3c1)CC[C@@H](N1C3COCC1C3)CC2 | – | 7.2 | 12 | 0.028 | 2900 | 0.13 | 1.2 | – | 6.7 | 38.3
c1cc2c(cc1-c1cnc3[nH]nc(-c4ccc5c(c4)OCCO5)c3c1)CCC(N1C3COCC1C3)CC2 (racemic) | – | 16 | 46 | 0.017 | – | 0.069 | – | – | – | –
CO[C@H]1C[C@@H](N[C@H]2CCc3ccc(-c4cnc5[nH]nc(-c6ccc(-c7ncccc7C)cc6)c5c4)cc3CC2)C1 | 0.31 | < 2.7 | 6.4 | 0.0034 | – | – | – | – | – | –
COCCOc1ccc(-c2n[nH]c3ncc(-c4ccc5c(c4)CC[C@@H](N4C6COCC4C6)CC5)cc23)cc1 | – | 14 | 9.1 | 0.012 | 4200 | 0.066 | 0.93 | 84 | 17 | 15
c1cncc(-c2ccc(-c3n[nH]c4ncc(-c5ccc6c(c5)CC[C@@H](N5C7COCC5C7)CC6)cc34)cc2)c1 | – | – | – | 0.019 | – | 0.41 | – | – | – | –
CCc1cccnc1-c1ccc(-c2n[nH]c3ncc(-c4ccc5c(c4)CC[C@@H](N4C6COCC4C6)CC5)cc23)cc1 | 0.19 | 6.3 | 30 | 0.0014 | – | – | – | – | – | –
COc1cccnc1-c1ccc(-c2n[nH]c3ncc(-c4ccc5c(c4)CC[C@@H](N4C6COCC4C6)CC5)cc23)cc1 | 0.12 | 13 | 16 | 0.0024 | – | – | – | – | – | –
c1cc2c(cc1-c1cnc3[nH]nc(-c4ccc(N5C[C@@H]6C[C@H]5CO6)cc4)c3c1)CC[C@@H](N1C3COCC1C3)CC2 | – | – | – | 0.046 | – | 0.14 | – | – | – | –
CP(C)(=O)c1ccc(-c2n[nH]c3ncc(-c4ccc5c(c4)CCC(N4C6COCC4C6)CC5)cc23)cc1 (racemic) | – | – | – | – | – | 0.17 | – | – | – | –
c1cc2c(cc1-c1cnc3[nH]nc(-c4ccc(N5CC6(COC6)C5)cc4)c3c1)CC[C@@H](N1C3COCC1C3)CC2 | – | – | – | 0.027 | – | 0.12 | – | – | – | –
Cc1cccnc1-c1ccc(-c2n[nH]c3ncc(-c4ccc5c(c4)CC[C@@H](N4C[C@@H]6C[C@H]4CO6)CC5)cc23)cc1 | 0.057 | < 2.7 | 13 | 0.0018 | – | – | – | – | – | –
